Data taken from PMC6272674, “Selected Compounds Structurally Related to Acyclic Sesquiterpenoids and Their Antibacterial and Cytotoxic Activity” (Molecules, 2015).
Values after ≈ are worked out from the molar mass of the structure shown.

Columns and labels:
[1] = tested on: Fibroblasts HFIG; assay: MTT viability, HFIG; format: cell-based, human; settings: Homo sapiens, Fibroblast, 24 h, range 10–1000 µM, read-out: half maximal inhibitory concentration (IC50), interpolated
Experimental: (§1) Cell lines and in vitro culture conditions: The human promyelocytic leukaemia cell line HL-60 was obtained from the Centre of Molecular and Macromolecular Biology in Łódź, Poland and was cultured in RPMI 1640 medium with 20% heat-inactivated fetal bovine serum (FBS). To reduce spontaneous differentiation, the cells were never allowed to exceed a concentration of 1.0 × 10^6 cells/mL. The human keratinocyte cell line HaCaT was obtained from Cell Lines Service, Germany (CLS) and cultured in DMEM medium with 10% FBS. Human colorectal adenocarcinoma HT29 and normal epithelial IEC-6 cell lines (from ATCC) were cultured in DMEM medium with 10% FBS. The human skin melanoma cell line MEWO (from CLS) was cultured in DMEM:F12 supplemented with 2 mM L-glutamine and 10% FBS. Human fibroblasts from gingiva isolated from original tissue, HFIB-G, (from Provitro) were cultured in Quantum 333 (from Immunique). The media were supplemented with 100 U/mL penicillin and 100 µg/mL streptomycin; all media components were obtained from Life Technologies. The adherent cell lines used in the studies were seeded on microplates before they exceeded 80% of confluence. Cells were cultured at 37 °C in 5% CO2 air atmosphere/95% air atmosphere.
(§2) Cytotoxic activity: The cells (the density for HL-60 was 0.5 × 10^4 cells/100 µL, otherwise it was 1 × 10^4 cells/100 µL) were plated into each well of 96-well microtiter plates and, after their attachment to the plate surface, treated with 10 µL of the indicated concentrations of compounds for 24 h. Viability was determined by MTT assay following the treatment. MTT (3-[4.5-dimethylthiazol-2-yl]-2.5-diphenyltetrazolium bromide; Sigma, St. Louis, MO, USA) solution was added to each well and incubated for another 4 h. The resulting MTT-formazan product was dissolved by the addition of lysis buffer (20% SDS and 50% DMF). The amount of formazan was determined by measuring absorbance at 570 nm with a Synergy 2 microplate reader (BioTek, Winooski, VT, USA) operated by the Gen5 program. The experiments were conducted three times with five replications. The results are expressed as an optical density ratio of the treatment to control. All data are presented as means ± SD.

[2] = tested on: Malignant Melanoma MEWO; assay: MTT viability, MEWO; format: cell-based, human; settings: Homo sapiens, 24 h, range 10–1000 µM, read-out: half maximal inhibitory concentration (IC50), interpolated
Experimental: as §1, §2

[3] = tested on: Klebsiella pneumoniae ATCC 700603; assay: Micro-dilution broth MIC, Klebsiella pneumoniae; format: cell-based; settings: ATCC700603, 24 h, 37 °C, read-out: Minimum Inhibitory Concentrations MIC
Experimental: (§3) The standard strains, Gram-positive: Staphylococcus aureus ATCC […], Enterococcus faecalis Van B ATCC 51299 and Enterococcus faecium VA sensitive ATCC 35667, and Gram-negative: Escherichia coli ATCC 25922, Klebsiella pneumoniae ATCC 700603 and Acinetobacter baumannii ATCC 19606, came from a collection of the Environmental Biology Department, Medical University of Łódź. The standard strains were cultivated in Columbia Agar Medium and incubated at 37 °C for 24 h in aerobic conditions.
(§4) The antibacterial activity of the racemates and E/Z-mixtures was investigated using the micro‑dilution broth method. The compounds were diluted in ethanol. This stock solution was mixed with 100 µL of Mueller-Hinton broth to obtain concentrations from 10 µg/mL to 80 µg/mL. The mixtures were then transferred to 96-well microtiter plates. The microbial suspension was standardised to a cell density of 1.5 × 10^8 CFU, which was equal to an optical density of 0.5 on the Mc Farland scale by a bio-Merieux densitometer; one well was filled with broth only to act as a control for strain growth.

[4] = tested on: Escherichia coli ATCC 25922; assay: Micro-dilution broth MIC, Escherichia coli; format: cell-based; settings: ATCC25922, 24 h, 37 °C, read-out: Minimum Inhibitory Concentrations MIC
Experimental: as §3, §4

[5] = tested on: Enterococcus faecium ATCC 35667; assay: Micro-dilution broth MIC, Enterococcus faecium; format: cell-based; settings: ATCC35667, 24 h, 37 °C, read-out: Minimum Inhibitory Concentrations MIC
Experimental: as §3, §4

[6] = tested on: Enterococcus faecalis ATCC 51299; assay: Micro-dilution broth MIC, Enterococcus faecalis; format: cell-based; settings: ATCC51299, 24 h, 37 °C, read-out: Minimum Inhibitory Concentrations MIC
Experimental: as §3, §4

[7] = tested on: Promyelocytic Leukaemia HL-60; assay: MTT viability, HL-60; format: cell-based, human; settings: Homo sapiens, HL-60, 24 h, HL-60, MTT, range 10–1000 µM, read-out: half maximal inhibitory concentration (IC50), interpolated
Experimental: as §1, §2

[8] = MTT viability, HT29; format: cell-based, human; settings: human, HT29 colorectal adenocarcinoma cells, 1000 µM (IC50 exceeded 1000 µM), read-out: viability ± standard deviation at 1000 µM
Experimental: as §1, §2

[9] = tested on: Staphylococcus aureus ATCC 43300; assay: Micro-dilution broth MIC, Staphylococcus aureus; format: cell-based; settings: ATCC43300, 24 h, 37 °C, read-out: Minimum Inhibitory Concentrations MIC
Experimental: as §3, §4

[10] = tested on: Acinetobacter baumannii ATCC 19606; assay: Micro-dilution broth MIC, Acinetobacter baumannii; format: cell-based; settings: ATCC19606, 24 h, 37 °C, read-out: Minimum Inhibitory Concentrations MIC
Experimental: as §3, §4

[11] = MTT viability, IEC6; format: cell-based; settings: rat, IEC-6 small intestine epithelial cells, 1000 µM (IC50 exceeded 1000 µM), read-out: viability ± standard deviation at 1000 µM
Experimental: as §1, §2

[12] = tested on: Keratinocytes HaCaT; assay: MTT viability, HaCaT; format: cell-based, human; settings: Homo sapiens, 24 h, range 10–1000 µM, read-out: half maximal inhibitory concentration (IC50), interpolated
Experimental: as §1, §2

[13] = MTT viability, HaCaT; format: cell-based, human; settings: human, HaCaT keratinocytes, 1000 µM (IC50 exceeded 1000 µM), read-out: viability ± standard deviation at 1000 µM
Experimental: as §1, §2

[14] = MTT viability, HFIG; format: cell-based, human; settings: human, HFIG (HFIB-G) gingival fibroblasts, 1000 µM (IC50 exceeded 1000 µM), read-out: viability ± standard deviation at 1000 µM
Experimental: as §1, §2

[15] = MTT viability, MEWO; format: cell-based, human; settings: human, MEWO malignant melanoma cells, 1000 µM (IC50 exceeded 1000 µM), read-out: viability ± standard deviation at 1000 µM
Experimental: as §1, §2

SMILES | IC50 [2] [µM] | MIC [3] [µg/mL] | MIC [4] [µg/mL] | MIC [5] [µg/mL] | MIC [6] [µg/mL] | IC50 [7] [µM] | MIC [9] [µg/mL] | MIC [10] [µg/mL] | IC50 [1] [µM] | viability at 24 h, 1000 µM [8] [%] | viability at 24 h, 1000 µM [11] [%] | IC50 [12] [µM] | viability at 24 h, 1000 µM [13] [%] | viability at 24 h, 1000 µM [14] [%] | viability at 24 h, 1000 µM [15] [%]
CC(C)=CCCC(C)C(C)=CCCC(C)=CCO (stereo not drawn) [Compound 24, 3,7,8,12-Tetramethyltrideca-2,6,11-trien-1-ol] | 512 | 44 (≈ 176 µM) | 52 (≈ 208 µM) | 32 (≈ 128 µM) | 18 (≈ 71.9 µM) | 100 | 22 (≈ 87.9 µM) | 40 (≈ 160 µM) | 390 | 78 | 85 | 686 |  |  | 
CC(C)=CCCC(C)CCC(C)=CC=O (stereo not drawn) [Compound 22, 3,6,10-Trimethylundeca-2,9-dienal] | 700 | 36 (≈ 173 µM) | 44 (≈ 211 µM) | 46 (≈ 221 µM) | 24 (≈ 115 µM) | 600 | 26 (≈ 125 µM) | 36 (≈ 173 µM) | 740 | 93 | 76 | 880 |  |  | 
CC(C)=CCCC(C)CC(C)=CCO (stereo not drawn) [Compound 27, 3,5,9-Trimethyldeca-2,8-dien-1-ol] | 456 | 18 (≈ 91.7 µM) | 36 (≈ 183 µM) | 18 (≈ 91.7 µM) | 26 (≈ 132 µM) | 143 | 28 (≈ 143 µM) | 34 (≈ 173 µM) | 489 | 106 | 93 | 687 |  |  | 
CC(C)=CCCC(C)C(C)=CCCC(C)=CC=O (stereo not drawn) [Compound 18, 3,7,8,12-Tetramethyltrideca-2,6,11-trienal] | 630 | 46 (≈ 185 µM) | 52 (≈ 209 µM) | 28 (≈ 113 µM) | 22 (≈ 88.6 µM) | 502 | 18 (≈ 72.5 µM) | 46 (≈ 185 µM) | 690 | 98 | 79 | 800 |  |  | 
CC(C)=CCCC(C)=CCCC(C)=CC=O [Farnesal (3), farnesal, reference compound] | 467 | 44 (≈ 200 µM) | 46 (≈ 209 µM) | 36 (≈ 163 µM) | 22 (≈ 99.8 µM) | 363 | 24 (≈ 109 µM) | 36 (≈ 163 µM) | 650 | 110 | 85 | 702 |  |  | 
CC(=O)OCC=C(C)CCC=C(C)C(C)CCC=C(C)C (stereo not drawn) [Compound 30, 3,7,8,12-Tetramethyltrideca-2,6,11-trien-1-yl acetate] | 850 | 24 | 30 | 18 | 24 | 289 | 30 | 24 |  | 96 | 86 | 900 |  | 105 | 
CC(=O)OCC=C(C)CCC=C(C)CCC=C(C)C [Farnesyl acetate (5), farnesyl acetate, reference compound] | 734 | 22 | 28 | 20 | 20 | 121 | 28 | 22 |  | 105 | 78 |  | 102 | 98 | 
CC(=O)OCC=C(C)C(C)CC(C)CCC=C(C)C (stereo not drawn) [Compound 35, 3,4,6,10-Tetramethylundec-2,9-dien-1-yl acetate] |  | 18 | 16 | 14 | 16 | 343 | 34 | 12 |  | 83 | 71 |  | 102 | 87 | 112

Further lines, with some results ahead:

IC50 [2] [µM] | MIC [3] [µg/mL] | MIC [4] [µg/mL] | MIC [5] [µg/mL] | MIC [6] [µg/mL] | IC50 [7] [µM] | MIC [9] [µg/mL] | MIC [10] [µg/mL] | SMILES | IC50 [1] [µM] | viability at 24 h, 1000 µM [8] [%] | viability at 24 h, 1000 µM [11] [%] | IC50 [12] [µM] | viability at 24 h, 1000 µM [13] [%] | viability at 24 h, 1000 µM [14] [%] | viability at 24 h, 1000 µM [15] [%]
600 | 36 (≈ 154 µM) | 44 (≈ 188 µM) | 38 (≈ 162 µM) | 34 (≈ 145 µM) | 550 | 28 (≈ 119 µM) | 42 (≈ 179 µM) | CC(C)=CCCC(C)/C=C/CCC(C)=CC=O (stereo not drawn) [Compound 19, (6E)-3,8,12-Trimethyltrideca-2,6,11-trienal] | 750 | 96 | 94 | 650 |  |  | 
930 | 22 | 26 | 20 | 20 | 350 | 24 | 18 | CC(=O)OC/C=C(\C)CCC=CC(C)CCC=C(C)C (stereo not drawn) [Compound 31, (E)-3,8,12-Trimethyltrideca-2,6,11-trien-1-yl acetate] | 850 | 107 | 94 |  | 98 |  | 
 | 20 | 18 | 18 | 20 | 312 | 32 | 18 | CC(=O)OCC=C(C)CCC(C)CCC=C(C)C (stereo not drawn) [Compound 34, 3,6,10-Trimethylundeca-2,9-dien-1-yl acetate] |  | 98 | 79 |  | 110 | 99 | 98
 | 32 (≈ 67 µM) | 4 (≈ 8.38 µM) | 32 (≈ 67 µM) | > 64 |  | 16 (≈ 33.5 µM) | 32 (≈ 67 µM) | CNC(C)C1CCC(N)C(OC2C(N)CC(N)C(OC3OCC(C)(O)C(NC)C3O)C2O)O1 (stereo not drawn) [Gentamicin, reference compound] |  |  |  |  |  |  | 
 | 2 (≈ 6.04 µM) | 4 (≈ 12.1 µM) | 8 (≈ 24.1 µM) | 2 (≈ 6.04 µM) |  | 8 (≈ 24.1 µM) | 4 (≈ 12.1 µM) | O=C(O)c1cn(C2CC2)c2cc(N3CCNCC3)c(F)cc2c1=O [Ciprofloxacin, reference compound] |  |  |  |  |  |  | 
 | 18 | 26 | 16 | 18 | 400 | 26 | 22 | CC(=O)OCC=C(C)CC(C)CCC=C(C)C (stereo not drawn) [Compound 33, 3,5,9-Trimethyldeca-2,8-dien-1-yl acetate] |  | 110 | 95 |  | 101 | 100 | 103
